# From patent US7776862B2, “Pyridyl and phenyl substituted piperazine-piperidines with CXCR3 antagonist activity” (Schering Corporation, priority 2005, dated 2010)
# pIC50: −log10 of the molar value.
# Target: T1, human CXCR3 (N-delta 4) (Homo sapiens, UniProt P49682)
# T1 construct: CD8 leader; Flag tag; expressed in transfected cells; membranes used
# T1 sequence (P49682 5-368 limits assumed): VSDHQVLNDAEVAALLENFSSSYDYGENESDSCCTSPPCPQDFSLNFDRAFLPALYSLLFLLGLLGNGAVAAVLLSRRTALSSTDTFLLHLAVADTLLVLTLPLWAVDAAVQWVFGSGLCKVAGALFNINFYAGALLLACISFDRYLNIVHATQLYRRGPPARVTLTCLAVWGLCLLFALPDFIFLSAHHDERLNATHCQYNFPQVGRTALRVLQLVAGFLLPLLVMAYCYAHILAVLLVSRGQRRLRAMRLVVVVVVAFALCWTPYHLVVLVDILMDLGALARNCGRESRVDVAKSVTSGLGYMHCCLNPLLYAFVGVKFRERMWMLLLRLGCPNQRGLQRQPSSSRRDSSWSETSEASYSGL
# Test: Human CXCR3 (N-delta 4) scintillation proximity assay (SPA), [125I] IP-10 binding
# Details: IC50 rating; Ba/F3-hCXCR3 (N-delta 4) membranes, 25 pM [125I] IP-10
# Method in brief: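 Membranes from mouse Ba/F3 pro-B cells stably expressing Flag-tagged human CXCR3 (N-delta 4) were coupled to SPA beads. IP-10 was added together with titrated compounds to start the reaction, and bound radioligand was read by scintillation proximity.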
row,pIC50,Structure (SMILES)
1,7.00 to 7.60,O=C(NCc1ccc(Cl)cc1F)c1cnc(N2CCN(C3CCN(Cc4ccc([N+](=O)[O-])cc4)CC3)CC2)c(Cl)c1 [compound 155]
2,7.00 to 7.60,O=C(NCc1ccc(F)c(Cl)c1)c1cnc(N2CCN(C3CCN(Cc4ccc(Cl)c(F)c4)CC3)CC2)c(Cl)c1 [compound 156]
3,7.00 to 7.60,O=C(NCc1ccc(Cl)cc1)c1cnc(N2CCN(C3CCN(Cc4ccc(F)c(F)c4)CC3)CC2)c(Cl)c1 [compound 157]
4,7.00 to 7.60,O=C(NCc1ccc(F)c(Cl)c1)c1cnc(N2CCN(C3CCN(Cc4ccc([N+](=O)[O-])cc4)CC3)CC2)c(Cl)c1 [compound 158]
5,7.00 to 7.60,CNC(=O)c1cnc(N2CCN(C3CCN(Cc4ccc(Cl)cc4)C(C)C3)[C@@H](C)C2)c(Cl)c1 (stereo partly shown) [compound 159]
6,7.00 to 7.60,CC[C@H]1CN(c2ncc(C(=O)NC(C)C)cc2Cl)CCN1C1CCN(C(=O)c2ccc(Cl)cc2)CC1 [compound 160]
7,7.00 to 7.60,O=C(NCc1ccc(Cl)cc1)c1cnc(N2CCN(C3CCN(Cc4ccc(Cl)c(F)c4)CC3)CC2)c(Cl)c1 [compound 161]
8,> 7.60,O=C(NCc1ccc(Cl)c(Cl)c1)c1cnc(N2CCN(C3CCN(Cc4ccc([N+](=O)[O-])cc4)CC3)CC2)c(Cl)c1 [compound 162]
9,> 7.60,CCNC(=O)c1cnc(N2CCN(C3CCN(Cc4ccc(Cl)cc4)CC3(C)C)CC2)c(Cl)c1 (stereo not shown) [compound 163]
10,> 7.60,O=C(NCc1ccc(F)c(F)c1)c1cnc(N2CCN(C3CCN(Cc4ccc([N+](=O)[O-])cc4)CC3)CC2)c(Br)c1 [compound 164]
11,< 7.00,O=C(NCCOc1ccccc1)c1cnc(N2CCN(C3CCN(Cc4ccc(-c5ccccc5)cc4)CC3)CC2)c(Cl)c1 [compound 165]
12,< 7.00,O=C(NCc1ccccc1Cl)c1cnc(N2CCN(C3CCN(Cc4ccc(Cl)cc4)CC3)CC2)c(Cl)c1 [compound 166]
13,< 7.00,O=C(NCC1CC1)c1cnc(N2CCN(C3CCN(Cc4ccc(Cl)cc4)CC3)CC2)c(Cl)c1 [compound 167]
14,< 7.00,O=C(NC1CCCC1)c1cnc(N2CCN(C3CCN(Cc4ccc(Cl)cc4)CC3)CC2)c(Cl)c1 [compound 168]
15,< 7.00,O=C(NCCOc1ccccc1)c1cnc(N2CCN(C3CCN(Cc4ccc(OC(F)(F)F)cc4)CC3)CC2)c(Cl)c1 [compound 169]
16,< 7.00,O=C(NCc1ccc(F)c(F)c1)c1cnc(N2CC3CC2CN3C2CCN(Cc3ccc(Cl)cc3)CC2)c(Cl)c1 (stereo not shown) [compound 170]
17,7.00 to 7.60,CC(NC(=O)c1cnc(N2CCN(C3CCN(Cc4ccc(Cl)cc4)CC3)CC2)c(Cl)c1)c1ccc(Cl)cc1 (stereo not shown) [compound 171]
18,< 7.00,CC(c1ccc(C#N)cc1)N1CCC(N2CCN(c3ncc(C(=O)NCc4ccc(F)c(F)c4)cc3Cl)CC2)CC1 (stereo not shown) [compound 172]
19,< 7.00,C[C@@H]1CN(C2CCN(Cc3ccc(C#N)cc3)CC2)CCN1c1ncc(C(=O)NCc2ccc(Cl)c(Cl)c2)cc1Cl [compound 173]
20,7.00 to 7.60,C[C@@H]1CN(C2CCN(Cc3ccc([N+](=O)[O-])cc3)CC2)CCN1c1ncc(C(=O)NCc2ccc(Cl)c(Cl)c2)cc1Cl [compound 174]
21,7.00 to 7.60,C[C@H]1CN(C2CCN(Cc3ccc(Cl)cc3)CC2)CCN1c1ncc(C(=O)NCc2ccc(Cl)c(Cl)c2)cc1Cl [compound 175]

row,pIC50,Structure (SMILES)
1,< 7.00,O=C(NCC1COc2ccccc2O1)c1cnc(N2CCN(C3CCN(Cc4ccc(Cl)cc4)CC3)CC2)c(Br)c1 (stereo not shown) [compound 176]
2,< 7.00,CCCCNC(=O)c1cnc(N2CCN(C3CCN(Cc4ccc(Cl)cc4)CC3)CC2)c(Cl)c1 [compound 177]
3,< 7.00,O=C(NCC(c1ccccc1)c1ccccc1)c1cnc(N2CCN(C3CCN(Cc4ccc(Cl)cc4)CC3)CC2)c(Br)c1 [compound 178]
4,< 7.00,CC1(C)C2CCC(CNC(=O)c3cnc(N4CCN(C5CCN(Cc6ccc(Cl)cc6)CC5)CC4)c(Br)c3)C1C2 (stereo not shown) [compound 179]
5,< 7.00,CC(C)NC(=O)c1cnc(N2CCN(C3CCN(Cc4ccc(Cl)cc4)CC3)CC2)c(Cl)c1 [compound 180]
6,< 7.00,CC(C)CNC(=O)c1cnc(N2CCN(C3CCN(Cc4ccc(Cl)cc4)CC3)CC2)c(Cl)c1 [compound 181]
7,> 7.60,O=C(NCc1ccc(F)c(F)c1)c1cnc(N2CCN(C3CCN(Cc4ccc(Cl)cc4)CC3)CC2)c(I)c1 [compound 182]
8,< 7.00,Cc1ccc(CN2CCC(N3CCN(c4ncc(C(=O)NCc5ccc(Cl)c(Cl)c5)cc4Cl)CC3)CC2)cc1 [compound 183]
9,7.00 to 7.60,O=C(NCC1CCCCC1)c1cnc(N2CCN(C3CCN(Cc4ccc(Cl)cc4)CC3)CC2)c(Cl)c1 [compound 184]
10,> 7.60,CC1CN(c2ncc(C(=O)NCc3ccc(Cl)c(Cl)c3)cc2Cl)CCN1C1CCN(Cc2ccc(Cl)cc2)CC1 (stereo not shown) [compound 185]
11,> 7.60,CC1CN(c2ncc(C(=O)NCc3ccc(Cl)c(Cl)c3)cc2Cl)CCN1C1CCN(Cc2ccc([N+](=O)[O-])cc2)CC1 (stereo not shown) [compound 186]
12,> 7.60,CC1CN(c2ncc(C(=O)NCc3ccc(F)c(F)c3)cc2Cl)CCN1C1CCN(Cc2ccc([N+](=O)[O-])cc2)CC1 (stereo not shown) [compound 187]
13,7.00 to 7.60,CC1CN(c2ncc(C(=O)NCc3ccc(F)c(F)c3)cc2Cl)CCN1C1CCN(Cc2ccc(Cl)cc2)CC1 (stereo not shown) [compound 188]
14,< 7.00,O=C(NC1CCCC1)c1cnc(N2CCN(C3CCN(Cc4ccc(Cl)cc4)CC3)CC2)c(Br)c1 [compound 189]
15,< 7.00,N#Cc1ccc(CN2CCC(N3CCN(c4ncc(C(=O)NC5CCCC5)cc4Cl)CC3)CC2)cc1 [compound 190]
16,< 7.00,O=C(NC1CCCCC1)c1cnc(N2CCN(C3CCN(Cc4ccc(Cl)cc4)CC3)CC2)c(Cl)c1 [compound 191]
17,< 7.00,CCCNC(=O)c1cnc(N2CCN(C3CCN(Cc4ccc(Cl)cc4)CC3)CC2)c(Cl)c1 [compound 192]
18,7.00 to 7.60,N#Cc1ccc(C(=O)N2CCC(N3CCN(c4ncc(C(=O)NCC5CCCCC5)cc4Br)CC3)CC2)cc1 [compound 193]
19,7.00 to 7.60,O=C(NCC1CCCCC1)c1cnc(N2CCN(C3CCN(Cc4ccc(Cl)cc4)CC3)CC2)c(Br)c1 [compound 194]
20,< 7.00,COCCNC(=O)c1cnc(N2CCN(C3CCN(Cc4ccc(Cl)cc4)CC3)[C@@H](CC(C)C)C2)c(Cl)c1 [compound 195]
21,< 7.00,CC(C)C[C@H]1CN(c2ncc(C(=O)NC(C)C)cc2Cl)CCN1C1CCN(Cc2ccc(Cl)cc2)CC1 [compound 196]

row,pIC50,Structure (SMILES)
1,7.00 to 7.60,CC(C)C[C@H]1CN(c2ncc(C(=O)NCC3CCCCC3)cc2Cl)CCN1C1CCN(Cc2ccc(Cl)cc2)CC1 [compound 197]
2,< 7.00,CNC(=O)c1cnc(N2CCN(C3CCN(Cc4ccc(Cl)cc4)CC3)[C@@H](CC(C)C)C2)c(Cl)c1 [compound 198]
3,< 7.00,CC(C)C[C@H]1CN(c2ncc(C(=O)NCc3ccc(F)c(F)c3)cc2Cl)CCN1C1CCN(Cc2ccc(Cl)cc2)CC1 [compound 199]
4,< 7.00,Cc1cc(C(=O)NCc2ccc(F)c(F)c2)cnc1N1CCN(C2CCN(Cc3ccc(Cl)cc3)CC2)CC1 [compound 200]
5,< 7.00,Cc1cc(C(=O)NCc2ccc(Cl)c(Cl)c2)cnc1N1CCN(C2CCN(Cc3ccc(Cl)cc3)CC2)CC1 [compound 201]
6,7.00 to 7.60,CC1(N2CCN(c3ncc(C(=O)NCC4CCCCC4)cc3Cl)CC2)CCN(Cc2ccc(Cl)cc2)CC1 [compound 202]
7,< 7.00,Cc1cc(C(=O)NCC2CCCCC2)cnc1N1CCN(C2CCN(Cc3ccc(Cl)cc3)CC2)CC1 [compound 203]
8,7.00 to 7.60,C[C@H]1CN(c2ccc(C(=O)NCc3ccc(F)c(F)c3)cc2Cl)CCN1C1(C)CCN(Cc2ccc(Cl)cc2)CC1 [compound 204]
9,< 7.00,CNC(=O)c1cnc(N2CCN(C3(C)CCN(Cc4ccc(Cl)cc4)CC3)[C@@H](C)C2)c(Cl)c1 [compound 205]
10,7.00 to 7.60,CC1(N2CCN(c3ncc(C(=O)NCc4ccc(Cl)c(Cl)c4)cc3Cl)CC2)CCN(Cc2ccc(Cl)cc2)CC1 [compound 206]
11,< 7.00,CC1(N2CCN(c3ncc(C(=O)NCc4ccc(F)c(F)c4)cc3Cl)CC2)CCN(Cc2ccc(Cl)cc2)CC1 [compound 207]
12,< 7.00,CCNC(=O)c1cnc(N2CCN(C3(CC)CCN(Cc4ccc(Cl)cc4)CC3)CC2)c(Cl)c1 [compound 208]
13,> 7.60,CCNC(=O)c1cnc(N2CCN(C3CCN(Cc4ccc(Cl)cc4)CC3C)[C@@H](C)C2)c(Cl)c1 (stereo partly shown) [compound 209]
14,> 7.60,CCNC(=O)c1cnc(N2CCN(C3CCN(Cc4ccc(Cl)cc4)CC3)[C@@H](C(C)C)C2)c(Cl)c1 [compound 210]
15,< 7.00,CCNC(=O)c1cnc(N2CCN(C3CCN(C(=O)c4ccc(Cl)cc4)CC3)[C@@H](C(C)C)C2)c(Cl)c1 [compound 211]
16,> 7.60,CCNC(=O)c1cnc(N2CCN(C3CCN(Cc4ccc(Cl)cc4F)CC3)[C@@H](CC)C2)c(Cl)c1 [compound 212]
17,> 7.60,CCNC(=O)c1cnc(N2CCN(C3CCN(Cc4ccc(Cl)cc4)CC3)[C@@H](CC)C2)c(Cl)c1 [compound 213]
18,> 7.60,CCNC(=O)c1cnc(N2C[C@H](CC)N(C3CCN(Cc4ccc(Cl)cc4)CC3)C[C@H]2C)c(Cl)c1 [compound 214]
19,> 7.60,CC[C@H]1CN(c2ncc(C(=O)NC3CC3)cc2Cl)CCN1C1CCN(Cc2ccc(Cl)cc2F)CC1 [compound 215]
20,> 7.60,CC[C@H]1CN(c2ncc(C(=O)NC(C)C)cc2Cl)CCN1C1CCN(Cc2ccc(Cl)cc2)CC1 [compound 216]
21,> 7.60,CCNC(=O)c1cnc(N2C[C@H](CC)N(C3CCN(Cc4ccc(Cl)cc4F)CC3)C[C@H]2C)c(Cl)c1 [compound 217]

# Same assay, conditions: value given in text as example
row,pIC50,Structure (SMILES)
1,9.70,CCNC(=O)c1cnc(N2CCN(C3CCN(Cc4ccc(Cl)cc4F)CC3)[C@@H](CC)C2)c(Cl)c1 [compound 212]
